Reference: US20100047227A1, “NOVEL ANTICANCER CATHEPSIN FORMULATIONS AND ANTICANCER AGENT FOR USE IN COMBINED ANTICANCER THERAPY” (priority 2006, published 2010)

Key:
[1] = tested on: TRAIL; assay: ELISA of TRAIL in culture supernatant of ALVA-41 cells; format: cell-based, human; settings: ALVA-41 cells treated with cathepsin E 100 μg/ml, 20 hours
Description: (§1) ALVA-41 cells (1×10^6 cells per a 6-cm dish) were incubated together with cathepsin E (100 μg/ml) in a non-serum culture medium Opti-MEM at 37° C. for 20 hours. The resulting culture supernatant was measured for amounts of TRAIL, FasL and TNF-α with ELSA kit in a manner as will be described briefly. A sample and a standard product (each 100 μl) were added to a microtiter plate immobilized with a monoclonal antibody to the corresponding member of the TNF family and incubated at room temperature for 2 hours. Then, the wells of the microtiter plate were washed four times with a washing buffer and 100 μl of biotin-conjugated monoclonal antibody was added to each wells of the plate, following by incubation at room temperature for 1 hour and washing the wells of the plate completely. Then, they were incubated together with 100 μl of streptoavidin-conjugated horseradish peroxidase at room temperature for 30 minutes and washed four times with a washing buffer. […] After an addition of a reaction terminating solution, the wells were measured at 450 nm with microreader.
(§2) In this experiment, the ALVA-41 cells were treated with cathepsin E (100 μg/ml) or physiological saline at 37° C. and pH 7.4 for 20 hours and measured for the amounts of TNF-α, FasL and TRAIL in the culture supernatant by ELSA. […] Apoptosis of the ALVA-41 cells was measured using the culture supernatant after immunoprecipitation. […]

[2] = tested on: TNF-α; assay: ELISA of TNF-α in culture supernatant of ALVA-41 cells; format: cell-based, human; settings: ALVA-41 cells treated with cathepsin E 100 μg/ml, 20 hours
Description: as §1, §2

Substance: cathepsin E
- TRAIL in culture supernatant [1]: apparently secreted
- TNF-α in culture supernatant [2]: little detected
